Source: patent publication US20070048370A1, “Pharmaceutical formulation for salts of monobasic acids with clopidogrel” (priority 2005, published 2007)
Where two headings read alike, the source gives them in different places.

Procedure: The stability of clopidogrel besylate in the presence of various tabletting excipients was investigated. For this purpose, clopidogrel besylate was thoroughly triturated with the excipient in the ratio 1:1 and stored for two weeks at 40° C. and 75% relative humidity. The content of clopidogrel besylate in the sample was then determined.

Clopidogrel besylate Residual content (%) (1:1 with AcDiSol, two weeks at 40° C. and 75% relative humidity): 94.00%
Clopidogrel besylate Residual content (%) (1:1 with Lactose, two weeks at 40° C. and 75% relative humidity): 99.86%
Clopidogrel besylate Residual content (%) (1:1 with Macrogol 6000, two weeks at 40° C. and 75% relative humidity): 90.07%
Clopidogrel besylate Residual content (%) (1:1 with Mannitol, two weeks at 40° C. and 75% relative humidity): 99.85%
Clopidogrel besylate Residual content (%) (1:1 with Mg-stearate, two weeks at 40° C. and 75% relative humidity): 51.99%
Clopidogrel besylate Residual content (%) (1:1 with Microcrystalline cellulose, two weeks at 40° C. and 75% relative humidity): 99.24%
Clopidogrel besylate Residual content (%) (1:1 with Silica, two weeks at 40° C. and 75% relative humidity): 99.44%
Clopidogrel besylate Residual content (%) (1:1 with Stearic acid, two weeks at 40° C. and 75% relative humidity): 99.50%
Clopidogrel besylate Residual content (%) (no excipient, stored two weeks at 40° C. and 75% relative humidity, content vs beginning of storage): 99.76%
Compatibility with excipient (decomposition of the active substance) (with Macrogol 6000): incompatible
Compatibility with excipient (decomposition of the active substance) (with Magnesium stearate): incompatible
Compatibility with excipient (decomposition of the active substance) (with croscarmellose sodium (AcDiSol)): incompatible
Compatibility with excipient (decomposition of the active substance) (with sodium lauryl sulfate): incompatible
Substance: 5-methyl-a-(4,5,6,7-tetrahydro[2,3-c]thienopyridyl)(2-chlorophenyl)acetate [Clopidogrel besylate]
